The values below are quoted from earlier work in patent US6413717B1, “Methods for indentifying anti-cancer agents” (Corixa Corporation, priority 1998, dated 2002).

Molecules are shown by their SMILES.

One data set has as its system human melanoma cells. To be noted: IFN-β 2000 U and MEZ 10 ng/mL.
In a further data set the test system is mda-7. To be noted: IFN-β 2000 U and MEZ 10 ng/mL, agents known to modulate gene expression.

`C=C(C)[C@@]12O[C@@]3(c4ccccc4)O[C@@H]1[C@@H]1[C@@H]4O[C@]4(CO)[C@@H](O)[C@]4(O)C(=O)C(C)=C[C@H]4[C@@]1(O3)[C@H](C)[C@H]2OC(=O)/C=C/C=C/c1ccccc1` [mezerein]: in the data set with human melanoma cells, the proliferative potential result is “irreversible loss of proliferative potential” and the terminal differentiation entry is “induction of terminal differentiation”. Moreover, the mda-7 expression entry in the data set on mda-7 is recorded as “induce an increase”.
